Results taken from ChEMBL document CHEMBL1201862, “PubChem BioAssay data set” (2004).
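48-hour exposure; five concentrations; linearly interpolated endpoints. GI50 is the concentration that inhibits growth by half.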 The source made the active and inactive calls. Rule as the data show it: active = GI50 up to about 1.1 µM and inactive = higher.

Columns and labels:
Assay in all cases: DTP human tumour cell line panel, 48 h
BT-549 = test system: BT-549
HOP-18 = test system: HOP-18
LXFL 529 = test system: LXFL 529
DLD-1 = test system: DLD-1
KM-20L2 = test system: KM-20L2
M19-MEL = test system: M19-MEL
DMS-114 = test system: DMS-114
XF498 = test system: XF498
RXF 631 = test system: RXF 631

| Compound | GI50 (BT-549) | GI50 (M19-MEL) | GI50 (DMS-114) | further results |
| --- | --- | --- | --- | --- |
| O=C1Nc2ccccc2/C1=N/Nc1ccc([N+](=O)[O-])cc1 | 16.5 µM (inactive) |  |  |  |
| NC(=O)C(Nc1c(Cl)cccc1Cl)c1cc2cc(Br)ccc2nc1Cl (configuration not stated) | 36.8 µM (inactive) |  |  |  |
| CCCCc1ccc(Nc2nc(Cl)c3[nH]cnc3n2)cc1 | 28.1 µM (inactive) |  |  |  |
| CCOc1ccc2c(c1)[n+]([O-])c(S(=O)(=O)c1ccc(C)cc1)c(N)[n+]2[O-] |  | > 100 µM (inactive) | > 100 µM (inactive) | GI50 (HOP-18): > 100 µM (inactive); GI50 (LXFL 529): > 100 µM (inactive); GI50 (DLD-1): > 100 µM (inactive); GI50 (KM-20L2): > 100 µM (inactive) |
| C#CCN(N=O)C(=O)NC(CCCCNC(=O)OCc1ccccc1)C(=O)OCc1ccccc1 (configuration not stated) |  | 34.2 µM (inactive) | 19.8 µM (inactive) | GI50 (HOP-18): 20 µM (inactive); GI50 (LXFL 529): 17 µM (inactive); GI50 (DLD-1): 20.1 µM (inactive); GI50 (KM-20L2): 54.6 µM (inactive) |
| COC(=O)c1cc(C#N)[nH]c1-c1cc(Br)cs1 | 12.9 µM (inactive) |  |  |  |
| C/C(=N/Nc1nc(C)cc(O)n1)C(=O)O | > 100 µM (inactive) |  |  |  |
| Cc1ccc(/C=C2\Cc3cccc(C)c3C2=O)c(C(=O)O)c1 | 62.7 µM (inactive) |  |  |  |
| COc1ccc2nc(-c3ccc(OCc4ccccc4)cc3)ccc2c1 |  | > 100 µM (inactive) | > 100 µM (inactive) | GI50 (HOP-18): > 100 µM (inactive); GI50 (LXFL 529): > 100 µM (inactive); GI50 (DLD-1): > 100 µM (inactive); GI50 (KM-20L2): > 100 µM (inactive); GI50 (XF498): > 100 µM (inactive) |
| CC(C)C(Br)C(=O)NCC(=O)O (configuration not stated) | > 100 µM (inactive) |  |  |  |
| CC(=O)NNc1nc(C)c(C(/C=C/c2ccc(NC(C)=O)cc2)=N/NS(=O)(=O)c2ccc(C)cc2)s1 | > 100 µM (inactive) |  |  |  |
| Cc1cc(N(CCC#N)CCC#N)ccc1/C=C1N=C(/C=C/c2ccccc2)N(c2ccc(S(N)(=O)=O)cc2)C\1=O |  | > 100 µM (inactive) | > 100 µM (inactive) | GI50 (LXFL 529): > 100 µM (inactive); GI50 (DLD-1): > 100 µM (inactive); GI50 (KM-20L2): > 100 µM (inactive); GI50 (RXF 631): > 100 µM (inactive) |
| CC(=O)c1ccc2c(c1)CC1(C2)Cc2cc3c(c(C(=O)O)c2C1)CCC3 (configuration not stated) | > 100 µM (inactive) |  |  |  |
| CC1=NOC(=O)/C1=C/c1ccc2c(c1)OCO2 | 24 µM (inactive) |  |  |  |
| COc1cc(C)c2c(c1C=O)Oc1c(c(C)c(O)c3c1C(O)OC3=O)OC2=O (configuration not stated) [STICTIC ACID] | 35.2 µM (inactive) |  |  |  |
| CN(C)CCNC(=O)c1cccc2c1nc(-c1ccncc1)c1ccccc12 |  | 2.82 µM (inactive) | 2.84 µM (inactive) | GI50 (HOP-18): 9.91 µM (inactive); GI50 (DLD-1): 2.38 µM (inactive) |
| CC1=C(C(=O)Nc2cccc(Cl)c2)C(c2ccccc2F)C(C(=O)Nc2cccc(Cl)c2)=C(C)N1 |  | 11.6 µM (inactive) | 6.32 µM (inactive) | GI50 (LXFL 529): 8.11 µM (inactive); GI50 (DLD-1): 10.4 µM (inactive); GI50 (KM-20L2): 7.46 µM (inactive); GI50 (RXF 631): 10.1 µM (inactive) |
| CC(=C(C(N)=O)C(N)=O)C1C=C(c2cccs2)CC(c2ccc(Cl)cc2)=C1O (configuration not stated) | 16.1 µM (inactive) |  |  |  |
| COC(=O)NC1=NNC(=O)c2ccccc2N1 | > 100 µM (inactive) |  |  |  |
| CC1=NN(C(=O)Cc2ccccc2)C(=O)/C1=C\c1ccco1 |  | > 100 µM (inactive) | > 100 µM (inactive) | GI50 (HOP-18): > 100 µM (inactive); GI50 (DLD-1): > 100 µM (inactive); GI50 (XF498): > 100 µM (inactive) |

| Compound | GI50 (BT-549) | GI50 (M19-MEL) | GI50 (DMS-114) | further results |
| --- | --- | --- | --- | --- |
| CN(NC(=O)c1ccco1)C1=NCCN1 | > 100 µM (inactive) |  |  |  |
| COc1cc(C2c3cc4c(cc3OC(Nc3ccccc3)C2C)OCO4)cc(OC)c1O (configuration not stated) | 11.5 µM (inactive) |  |  |  |
| CCOC(=O)/C=C/C1OC(C)(C)OC1/C=C/C(=O)OCC (configuration not stated) | 54.8 µM (inactive) |  |  |  |
| CCCCCCSC[C@H](OC(C)=O)[C@@H](OC(C)=O)[C@@H](OC(C)=O)[C@@H](COC(C)=O)OC(C)=O | > 100 µM (inactive) |  |  |  |
| CCC1c2[nH]c3ccccc3c2C[C@H]2C(=O)NC(CCCCNC(=O)OC(C)(C)C)C(=O)N12 (some centres not stated) | 24.1 µM (inactive) |  |  |  |
| O=C(c1ccc(Cl)cc1)N(C(=S)OCc1ccccn1)c1ccccc1 | 60.7 µM (inactive) |  |  |  |
| Cc1cnc2nc(-c3ccc(Cl)cc3)cc(O)c2c1 | 9.95 µM (inactive) |  |  |  |
| COc1ccc(/C=C\c2cc(OC)c3c(c2)OCO3)c(O)c1O |  | 6.19 µM (inactive) | 2.88 µM (inactive) | GI50 (HOP-18): 20.6 µM (inactive); GI50 (LXFL 529): 2.07 µM (inactive); GI50 (DLD-1): 6.28 µM (inactive); GI50 (KM-20L2): 23.2 µM (inactive); GI50 (XF498): 11.1 µM (inactive) |
| CCCC[S+]([O-])CCC(N)C(=O)O (configuration not stated) | > 100 µM (inactive) |  |  |  |
| COCCOCOC(CCCCO)c1cc(C)c(O[Si](C)(C)C(C)(C)C)c(C)c1 (configuration not stated) |  | 5.11 µM (inactive) | 2.47 µM (inactive) | GI50 (HOP-18): 16.9 µM (inactive); GI50 (LXFL 529): 10.4 µM (inactive); GI50 (KM-20L2): 4.72 µM (inactive) |
| FC1=C2CCCCCC2SC1(F)F (configuration not stated) | > 100 µM (inactive) |  |  |  |
| C=O.NNCCc1n[nH]c(=O)n1N | > 100 µM (inactive) |  |  |  |
| COc1ccc2oc3c4c2c1CCC4CCC3=O (configuration not stated) |  | > 100 µM (inactive) | > 100 µM (inactive) | GI50 (LXFL 529): > 100 µM (inactive); GI50 (XF498): > 100 µM (inactive); GI50 (RXF 631): > 100 µM (inactive) |
| O=C(NCCCCCCNC(=O)c1cccc2ccccc12)Nc1cccc2ccccc12 | > 100 µM (inactive) |  |  |  |
| Oc1c(Br)cc(CN(Cc2cc(Br)c(O)c(Br)c2)C2CCCCC2)cc1Br | > 100 µM (inactive) |  |  |  |
| CC1(C)C(OC(=O)c2ccccc2)C[C@]23CCC[C@](C)(C[C@@H](O)C12)C3 (some centres not stated) | 15.6 µM (inactive) |  |  |  |
| CC(C)(C)OC(=O)N1C(C2=COc3ccccc3O2)=COc2cccnc21 | 1.59 µM (inactive) |  |  |  |
| O=C(O)CNS(=O)(=O)c1ccc(NCc2ccccc2)cc1 |  | > 100 µM (inactive) | > 100 µM (inactive) | GI50 (HOP-18): > 100 µM (inactive); GI50 (LXFL 529): > 100 µM (inactive); GI50 (DLD-1): > 100 µM (inactive); GI50 (KM-20L2): > 100 µM (inactive); GI50 (XF498): > 100 µM (inactive) |
| COc1ccc(C(=O)Cc2c(C(=O)c3ccccc3)c3ccccc3n2C(=O)c2ccccc2)cc1 |  | > 100 µM (inactive) | 50.7 µM (inactive) | GI50 (LXFL 529): 67.6 µM (inactive); GI50 (DLD-1): 74 µM (inactive); GI50 (KM-20L2): > 100 µM (inactive); GI50 (XF498): > 100 µM (inactive) |
